Measurements published in patent publication US20250177357A1, “METHODS FOR TREATING HYPERTROPHIC CARDIOMYOPATHY” (priority 2021, published 2025).

Experiments:
[1] = test system: healthy adults; assay: Phase 1 first-in-human study: safety and tolerability (adverse events), SAD and MAD cohorts; conditions: in vivo
Source text: Study Overview and Ethics. The study used a randomized, placebo-controlled, single-ascending dose (SAD) and multiple-ascending dose (MAD) design (FIG. 2). […] Dose escalation was to be stopped when this range was achieved, or when a non-tolerated dose was identified, if earlier.
Participants and Treatments. To be eligible for this study, participants were to be healthy adults aged 18 to 55 years, with body mass index of 18.0 to 32.0 kg/m^2, normal electrocardiogram (ECG) and clinical laboratory values, or only minor abnormalities that were deemed not clinically significant. Participants also had to have normal cardiac structure and function, with LVEF≥60% for the first 4 SAD cohorts, ≥65% for subsequent SAD cohorts, all MAD cohorts, and the food-effect cohort, and >55% for the CYP2D6-PM cohort. […]
Safety and tolerability. Safety was assessed by the incidence of adverse events (AEs) and by incidence of reduced LVEF. […]
For safety monitoring, participants in all cohorts had periodic echocardiograms, which were assessed by a cardiologist. […] In addition, participants in all cohorts were monitored with continuous 12-lead ECG recording using Holter monitors. […] In the SAD, MAD, and CYP2D6-PM cohorts, cardiodynamic ECGs (triplicate 10-second, 12-lead ECG recordings) were obtained prior to the corresponding PK blood and ECG intervals quantitated by qualified readers.

[2] = Phase 1 plasma pharmacokinetics, food-effect cohort; type: in vivo, human; conditions: single 10 mg
Experimental: Food-effect cohort. […] Participants were randomized in a 1:1 ratio to 1 of 2 sequences: fasted/fed or fed/fasted.
Pharmacokinetic analyses. For all study groups, blood samples for PK assessment were obtained pre-dose, up to 12 times daily on day 1, and then at regular intervals throughout the study. Blood samples were collected according to the following schedule: SAD Cohorts: Day 1: pre-dose and 0.25, 0.5, 1, 1.5, 2, 2.5, 3, 4, 6, 8, 12, 16, 24, 36, 48, 72, 96, and 216 h post dose. […] CYPD6-PM Cohort: Day 1: pre-dose and 0.25, 0.5, 1, 1.5, 2, 2.5, 3, 4, 6, 8, 12, 16, 24, 36, 48, 72, 96, 216, 312, and 552 h post dose. Food-Effect Cohort: Day 1: pre-dose and 0.25, 0.5, 1, 1.5, 2, 2.5, 3, 4, 6, 8, 12, 16, 24, 36, 48, 72, 96, 144, and 216 h post dose. Standard non-compartmental methods were used to calculate PK parameters using Phoenix® WinNonlin® Version 7.0; actual sample collection times were utilized.

[3] = test system: patients with symptomatic obstructive HCM (oHCM); assay: Phase 2 trial in oHCM: safety; type: in vivo, human
Source text: Patients up-titrated to Dose 2 if either of the following conditions were met on echocardiography: (1) resting LVOT-G≥30 mmHg and the biplane LVEF≥50%; or (2) resting LVOT-G<30 mmHg, post-Valsalva LVOT-G≥50 mmHg, and the biplane LVEF≥50%. Otherwise, the patient remains on Dose 1. If LVEF is <50% at Week 2, the patient was down-titrated to placebo.
Patients were escalated to the next higher dose if either of the following conditions were met on echocardiography: (1) resting LVOT-G≥30 mmHg and the biplane LVEF≥50%; or (2) resting LVOT-G<30 mmHg, post-Valsalva LVOT-G≥50 mmHg, and the biplane LVEF≥50%. Otherwise, the patient remained on the same dose. If LVEF was <50% at Week 4, the patient was returned to a prior dose level or to placebo if the patient was on Dose 1.

CCc1nc(-c2ccc3c(c2)CC[C@H]3NC(=O)c2cnn(C)c2)no1 [aficamten, (R)—N-(5-(5-ethyl-1,2,4-oxadiazol-3-yl)-2,3-dihydro-1H-inden-1-yl)-1-methyl-1H-pyrazole-4-carboxamide]
Time to resolution of AEs of decreased ejection fraction <45% ([1]; human): 2.5 to 4.6 h | Post-dose LVEF of 1 participant with LVEF <50% [1]: 46.2% | CL/F, mean ± SD ([2]; Fasted, n = 4): 2.8 ± 0.6 L/h | CL/F, mean ± SD ([2]; Fed, n = 7): 3.1 ± 0.9 L/h | Increase in Cmax when taken with food ([2]; fed vs fasted): approximately 30% | Patients with LVEF <50% ([3]; Cohort 1): No patients | Patients with AEs related to study drug (per investigator) ([3]; Cohort 1, 21 randomized): 3 (14.3) N (%) | Patients with TEAEs leading to drug interruption or termination ([3]; Cohort 1, 21 randomized): 0 N (%) | Patients with TESAEs ([3]; Cohort 1, 21 randomized): 2 (9.5) N (%) | Patients with at least one TEAE ([3]; Cohort 1, 21 randomized): 17 (81) N (%) | Patients with fatal TEAEs ([3]; Cohort 1, 21 randomized): 0 N (%) | TEAE of LVEF <50% (Core Lab) ([3]; Cohort 1, 21 randomized): 0 N (%) | Patients with AEs related to study drug (per investigator) ([3]; Cohort 2, 20 randomized): 1 (5.0) N (%) | Patients with TEAEs leading to drug interruption or termination ([3]; Cohort 2, 20 randomized): 0 N (%) | Patients with TESAEs ([3]; Cohort 2, 20 randomized): 0 N (%) | Patients with at least one TEAE ([3]; Cohort 2, 20 randomized): 15 (75) N (%) | Patients with fatal TEAEs ([3]; Cohort 2, 20 randomized): 0 N (%) | TEAE of LVEF <50% (Core Lab) ([3]; Cohort 2, 20 randomized): 2 (10) N (%) | Patients with transient LVEF reduction to <50% requiring down titration ([3]; Cohort 2, on 20 mg, remaining above 40%): one patient | Interruptions or discontinuations of treatment ([3]; Cohorts 1 and 2): No interruptions or discontinuations | Treatment-related serious adverse events ([3]; Cohorts 1 and 2, 10 weeks, listed as CK-274): no treatment related serious adverse events | Patients with AEs related to study drug (per investigator) ([3]; Total, 54 patients): 6 (11.1) N (%) | Patients with TEAEs leading to drug interruption or termination ([3]; Total, 54 patients): 0 N (%) | Patients with TESAEs ([3]; Total, 54 patients): 2 (3.7) N (%) | Patients with at least one TEAE ([3]; Total, 54 patients): 41 (75.9) N (%) | Patients with fatal TEAEs ([3]; Total, 54 patients): 0 N (%) | TEAE of LVEF <50% (Core Lab) ([3]; Total, 54 patients): 2 (3.7) N (%) | Time for LVEF to return towards baseline ([3]; both cohorts): within two weeks after the end of treatment
